Results as given in patent US9422240B2, “Partially saturated nitrogen-containing heterocyclic compound” (TAISHO PHARMACEUTICAL CO., LTD, priority 2012, dated 2016).
Where a name gives a salt, the structure may show the parent alone.

target: human PHD2 (Homo sapiens (Human), UniProt Q9GZT9); experiment: Test 2: human PHD2 inhibitory activity, fluorescence polarization assay of HIF-1α peptide proline hydroxylation; format: biochemical; conditions: human PHD2, fluorescence polarization assay, 20-min incubation at 30° C.
Protocol: (1) Expression and Preparation of Human PHD2
A registered sequence of human PHD2 (NM_022051) was introduced into pcDNA3.1/Hygro(+) vector (Invitrogen), and the sequence was verified. […] The suspension of disrupted cells was centrifuged at 4° C. and 100,000×g for 30 minutes and the supernatant was recovered as a cell lysate.
(2) Measurement of Human PHD2 Inhibitory Activity
The activity of human PHD2 enzyme was measured with a substrate which is a 19-residue partial peptide based on the sequence of HIF-1α; specifically, the hydroxylation of a proline residue in the peptide was measured by FP (Fluorescence Polarization).
A test compound and the substrate solution were preliminarily added onto 384-well plates and reaction was initiated by adding a human PHD2 enzyme solution (40 ng/well). After 20-min incubation at 30° C., an EDTA-containing quench solution was added and the amount of the proline residues hydroxylated via binding to an added HIF—OH antibody solution was quantified by fluorescence polarization.
The fluorescence polarization of each well was measured and the human PHD2 inhibitory activity of each test compound was calculated on the basis of the values for the test compound-free group.

human PHD2, sequence (Q9GZT9 whole entry): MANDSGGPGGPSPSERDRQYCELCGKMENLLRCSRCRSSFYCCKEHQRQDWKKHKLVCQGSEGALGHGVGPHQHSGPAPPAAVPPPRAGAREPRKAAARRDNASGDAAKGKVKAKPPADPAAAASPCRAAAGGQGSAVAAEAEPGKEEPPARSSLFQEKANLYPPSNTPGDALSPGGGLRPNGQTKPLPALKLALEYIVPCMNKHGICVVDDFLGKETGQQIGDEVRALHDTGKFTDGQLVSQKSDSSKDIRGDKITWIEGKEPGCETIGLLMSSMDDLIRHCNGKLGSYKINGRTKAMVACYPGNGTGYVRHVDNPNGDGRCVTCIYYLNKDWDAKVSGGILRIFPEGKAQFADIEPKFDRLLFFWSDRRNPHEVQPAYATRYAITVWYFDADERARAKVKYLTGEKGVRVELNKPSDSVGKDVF

In order of falling IC50:
1. Cc1ccc(Oc2ncc(CN3CCC(O)=C(C(=O)NCC(=O)O)C3=O)cc2C)cn1 [Ex. 1-333]  92 nM
2. COc1cccc(Oc2ccc(CN3CCC(O)=C(C(=O)NCC(=O)O)C3=O)cn2)c1 [Ex. 1-354]  61 nM
3. O=C(O)CNC(=O)C1=C(O)CCN(Cc2ccc(Oc3ccc(C(F)(F)F)cc3)cn2)C1=O [Ex. 1-356]  60 nM
4. O=C(O)CNC(=O)C1=C(O)CCN(Cc2ccc(Oc3ccc(C4CC4)cn3)cc2)C1=O [Ex. 1-404]  56 nM
5. Cc1ccc(Oc2ncc(CN3CCC(O)=C(C(=O)NCC(=O)O)C3=O)cc2Cl)cc1 [Ex. 1-392]  26 nM
6. Cc1ccc(Oc2ccc(CN3CCC(O)=C(C(=O)NCC(=O)O)C3=O)cn2)cc1F [Ex. 1-367]  26 nM
7. CC(C)c1ccc(Oc2ccc(CN3CCC(O)=C(C(=O)NCC(=O)O)C3=O)cn2)cc1 [Ex. 1-378]  14 nM

same assay, conditions: read-out: Percent inhibition (% at 1 μM)

For `Cc1ccc(-c2ccc(CN3CCC(O)=C(C(=O)NCC(=O)O)C3=O)cc2)nc1` [Ex. 2-5, N-({4-Hydroxy-1-[4-(5-methyl-2-pyridinyl)benzyl]-2-oxo-1,2,5,6-tetrahydro-3-pyridinyl}carbonyl)glycine sodium salt], the inhibition at 1 µM was 97%.

same assay, conditions: test compound's concentration 1 μM; Test 2, fluorescence polarization assay; read-out: Percent inhibition (% at 1 μM)

In order of rising inhibition at 1 µM:
1. COc1ccc(CN2CCC(O)=C(C(=O)N[C@H](C)C(=O)O)C2=O)cc1 [Ex. 9-3]  1%
2. CC1(C)CC(O)=C(C(=O)NCC(=O)O)C(=O)N1CC1CN(c2ncccn2)C1 [Ex. 6-32]  4%
3. CN(Cc1ccc(F)cc1)C(=O)CN1C(=O)C(C(=O)NCC(=O)O)=C(O)CC1(C)C [Ex. 10-4]  10%
4. COc1ccc(CN2CCC(O)=C(C(=O)NCC(=O)NO)C2=O)cc1 [Ex. 8-1, 4-Hydroxy-N-[2-(hydroxyamino)-2-oxoethyl]-1-(4-methoxybenzyl)-2-oxo-1,2,5,6-tetrahydro-3-pyridinecarboxamide]  16%
5. NC(=O)[C@@H]1CC(O)=C(C(=O)NCC(=O)O)C(=O)N1Cc1ccc(OCC2CC2)cc1 [Ex. 6-16]  26%
6. CN(C)CCCOc1ccc(CN2CCC(O)=C(C(=O)NCC(=O)O)C2=O)cc1 [Ex. 1-343]  51%
7. O=C(O)CNC(=O)C1=C(O)CCN(CC2(c3ccccc3)CC2)C1=O [Ex. 1-399]  55%
8. CC(Cc1ccc(Cl)cc1)N1CCC(O)=C(C(=O)NCC(=O)O)C1=O (stereo not drawn) [Ex. 1-452]  67%
9. O=C(O)CNC(=O)C1=C(O)C[C@H](c2cccnc2)N(Cc2ccc(OCC3CC3)cc2)C1=O [Ex. 6-19]  72%
10. O=C(O)CNC(=O)C1=C(O)C[C@@H](c2ccccc2)N(Cc2ccc(OCC3CC3)cc2)C1=O [Ex. 6-11]  73%
11. O=C(O)CNC(=O)C1=C(O)CCN(Cc2ccc(C(=O)O)cc2)C1=O [Ex. 1-335]  73%
12. O=C(O)CNC(=O)C1=C(O)C2(CCC2)CN(Cc2ccc(OC(F)(F)F)c(Cl)c2)C1=O [Ex. 1-357]  74%
13. O=C(O)CNC(=O)C1=C(O)CCN(Cc2ccc(C(=O)NCCc3ccccn3)cc2)C1=O [Ex. 1-349]  74%
14. O=C(O)CNC(=O)C1=C(O)CCN(C[C@H]2CC[C@H](OCC3CC3)CC2)C1=O [Ex. 1-445]  75%
15. O=C(O)CNC(=O)C1=C(O)CCN(Cc2ccc(OCCO)cc2)C1=O [Ex. 1-344]  76%
16. O=C(O)CNC(=O)C1=C(O)CC2(CCCCC2)N(Cc2ccc(OCC3CC3)cc2)C1=O [Ex. 6-24]  78%
17. O=C(O)CNC(=O)C1=C(O)CC2(COC2)N(Cc2ccc(OCC3CC3)cc2)C1=O [Ex. 6-14]  80%
18. O=C(O)CNC(=O)C1=C(O)CC(CO)(CCl)N(Cc2ccc(-c3ccccc3)cc2)C1=O (stereo not drawn) [Ex. 1-465, N-{[1-(4-Biphenylylmethyl)-6-(chloromethyl)-4-hydroxy-6-(hydroxymethyl)-2-oxo-1,2,5,6-tetrahydro-3-pyridinyl]carbonyl}glycine]  80%
19. O=C(O)CNC(=O)C1=C(O)CCN(C[C@H]2CC[C@H](Oc3ccccn3)CC2)C1=O [Ex. 1-439]  81%
20. O=C(O)CNC(=O)C1=C(O)CC2(CCOCC2)N(Cc2ccc(OCC3CC3)cc2)C1=O [Ex. 6-13]  81%
21. Cc1cc(CN2CCC(O)=C(C(=O)NCC(=O)O)C2=O)cnc1OCC(F)(F)F [Ex. 1-410]  82%
22. Cc1cc(CN2CCC(O)=C(C(=O)NCC(=O)O)C2=O)ccc1OCCC(F)(F)F [Ex. 1-383]  83%
23. CC1C(O)=C(C(=O)NCC(=O)O)C(=O)N1Cc1ccc(OCC2CC2)cc1 (stereo not drawn) [Ex. 6-8]  83%
24. O=C(O)CNC(=O)C1=C(O)C[C@@H](c2cccnc2)N(Cc2ccc(OCC3CC3)cc2)C1=O [Ex. 6-20]  84%
25. O=C(O)CNC(=O)C1=C(O)CCN(C[C@H]2CC[C@@H](Oc3ccc(F)cc3)CC2)C1=O [Ex. 1-434]  85%
26. O=C(O)CNC(=O)C1=C(O)CCN(Cc2ccc(OCc3cn4ccsc4n3)cc2)C1=O [Ex. 1-407]  85%
27. Cc1cccc(COc2ccc(CN3CCC(O)=C(C(=O)NCC(=O)O)C3=O)cc2)n1 [Ex. 1-373]  85%
28. O=C(O)CNC(=O)C1=C(O)CCN(C[C@H]2CC[C@H](OCc3ccc(Cl)cn3)CC2)C1=O [Ex. 1-464]  87%
29. O=C(O)CNC(=O)C1=C(O)C2(CCCCC2)N(Cc2ccc(-c3ccc(C(F)(F)F)cc3)cc2)C1=O [Ex. 1-329]  87%
30. CC1(C)C(O)=C(C(=O)NCC(=O)O)C(=O)N1Cc1ccc(Oc2ccc(C(F)(F)F)cn2)cc1 [Ex. 6-6]  87%
31. O=C(O)CNC(=O)C1=C(O)CCN(C[C@H]2CC[C@H](Oc3ccc(F)cn3)CC2)C1=O [Ex. 1-412]  87%
32. CC1C(O)=C(C(=O)NCC(=O)O)C(=O)N1Cc1ccc(-c2ccccc2)cc1 (stereo not drawn) [Ex. 1-323]  87%
33. O=C(O)CNC(=O)C1=C(O)C[C@H](Cc2ccccc2)N(Cc2ccc(OCC3CC3)cc2)C1=O [Ex. 6-22]  88%
34. Cc1ccc(O[C@H]2C[C@H](CN3CCC(O)=C(C(=O)NCC(=O)O)C3=O)C2)cc1 [Ex. 1-458]  89%
35. CC1(COc2ccc(CN3CCC(O)=C(C(=O)NCC(=O)O)C3=O)cn2)CC1 [Ex. 1-396]  89%
36. O=C(O)CNC(=O)C1=C(O)CCN(Cc2ccc(OCc3ccc(Cl)cn3)cc2)C1=O [Ex. 1-405]  90%
37. Cc1cc(CN2CCC(O)=C(C(=O)NCC(=O)O)C2=O)cnc1OCCC1CC1 [Ex. 1-411]  90%
38. O=C(O)CNC(=O)C1=C(O)C2(CCCC2)N(Cc2ccc(-c3ccccc3)cc2)C1=O [Ex. 6-1, N-{[1-(4-Biphenylylmethyl)-4-hydroxy-2-oxo-1-azaspiro[4.4]non-3-en-3-yl]carbonyl}glycine]  91%
39. O=C(O)CNC(=O)C1=C(O)CCN(C[C@H]2C[C@@H]2c2ccc(F)cc2)C1=O [Ex. 1-352]  91%
40. Cc1ccc(Oc2ncc(CN3CCC(O)=C(C(=O)NCC(=O)O)C3=O)cc2C)cn1 [Ex. 1-333]  91%
41. Nc1ncc(-c2ccc(CN3CCC(O)=C(C(=O)NCC(=O)O)C3=O)cc2)cn1 [Ex. 2-61]  92%
42. O=C(O)CNC(=O)C1=C(O)CCN(C[C@H]2CC[C@H](OCC3CCCC3)CC2)C1=O [Ex. 1-448]  92%
43. O=C(O)CNC(=O)C1=C(O)CCN(Cc2ccc(-c3ccc(C(=O)O)nc3)cc2)C1=O [Ex. 2-58]  92%
44. CS(=O)(=O)c1ccc(-c2ccc(CN3CCC(O)=C(C(=O)NCC(=O)O)C3=O)cc2)cc1 [Ex. 2-31]  93%
45. O=C(O)CNC(=O)C1=C(O)CCN(Cc2ccc(-c3ccc(Cl)cc3)nc2)C1=O [Ex. 2-46]  93%
46. O=C(O)CNC(=O)C1=C(O)CCN(CC2CCN(C(=O)OCc3ccccc3)CC2)C1=O [Ex. 1-248]  94%
47. O=C(O)CNC(=O)C1=C(O)CCN(Cc2ccc(C3CCCCC3)c(F)c2)C1=O [Ex. 1-453]  94%
48. O=C(O)CNC(=O)C1=C(O)CCN(C[C@H]2C[C@H](OCc3ccc(Cl)cc3)C2)C1=O [Ex. 1-457]  94%
49. Cc1ccc(OCc2ccc(CN3CCC(O)=C(C(=O)NCC(=O)O)C3=O)cc2)cn1 [Ex. 1-415]  94%
50. Cc1ccc(O[C@H]2CC[C@H](CN3CCC(O)=C(C(=O)NCC(=O)O)C3=O)CC2)cc1 [Ex. 1-430]  95%
51. Cc1ccc(-c2ccc(CN3CCC(O)=C(C(=O)NCC(=O)O)C3=O)cn2)cc1 [Ex. 2-45]  95%
52. O=C(O)CNC(=O)C1=C(O)CCN(Cc2ccc(Oc3ccc(C4CC4)cn3)cc2)C1=O [Ex. 1-404]  96%
53. COc1cccc(Oc2ccc(CN3CCC(O)=C(C(=O)NCC(=O)O)C3=O)cn2)c1 [Ex. 1-354]  96%
54. O=C(O)CNC(=O)C1=C(O)CCN(Cc2ccc(Oc3ccc(C(F)(F)F)cc3)cn2)C1=O [Ex. 1-356]  96%
55. COc1ccc(-c2ccc(CN3CCC(O)=C(C(=O)NCC(=O)O)C3=O)cn2)cc1 [Ex. 2-35]  96%
56. O=C(O)CNC(=O)C1=C(O)CCN(C[C@H]2CC[C@H](OCc3ccc(Cl)cc3)CC2)C1=O [Ex. 1-429]  96%
57. COc1cncc(-c2ccc(CN3CCC(O)=C(C(=O)NCC(=O)O)C3=O)cc2)c1 [Ex. 2-53]  97%
58. O=C(O)CNC(=O)C1=C(O)CCN(Cc2ccc(COc3ccc(C(F)(F)F)cn3)cc2)C1=O [Ex. 1-424]  97%
59. O=C(O)CNC(=O)C1=C(O)CCN(Cc2ccc(OCc3ccccc3Cl)cc2)C1=O [Ex. 1-369]  98%
60. O=C(O)CNC(=O)C1=C(O)CCN(C[C@H]2C[C@@H](Oc3ccc(Cl)cc3)C2)C1=O [Ex. 1-456]  98%
61. Cc1ccc(Oc2ncc(CN3CCC(O)=C(C(=O)NCC(=O)O)C3=O)cc2Cl)cc1 [Ex. 1-392]  98%
62. CC(C)c1ccc(Oc2ccc(CN3CCC(O)=C(C(=O)NCC(=O)O)C3=O)cn2)cc1 [Ex. 1-378]  98%
63. Cc1ccc(Oc2ccc(CN3CCC(O)=C(C(=O)NCC(=O)O)C3=O)cn2)cc1F [Ex. 1-367]  105%
64. O=C(O)CNC(=O)C1=C(O)CCN(C[C@H]2CC[C@H](Oc3ccc(F)cc3)CC2)C1=O [Ex. 1-402]  109%
